Experimental data published in patent EP4755881A1 (Wuhan Createrna Science and Technology Co., Ltd., priority 2023, dated 2025).
Like-named read-outs stand apart in the source and are kept apart here.

Tests used:
LPAR1 receptor = target: T1, LPAR1 receptor (Homo sapiens, UniProt Q92633); assay: LPAR1 in vitro biological activity evaluation 2: HTRF cAMP kit (LANCE Ultra cAMP Kit) assay in CHO stable transfected cell line expressing the LPAR1 receptor; format: cell-based
T1 construct: expressed in transfected cells
T1 sequence (Q92633 whole entry): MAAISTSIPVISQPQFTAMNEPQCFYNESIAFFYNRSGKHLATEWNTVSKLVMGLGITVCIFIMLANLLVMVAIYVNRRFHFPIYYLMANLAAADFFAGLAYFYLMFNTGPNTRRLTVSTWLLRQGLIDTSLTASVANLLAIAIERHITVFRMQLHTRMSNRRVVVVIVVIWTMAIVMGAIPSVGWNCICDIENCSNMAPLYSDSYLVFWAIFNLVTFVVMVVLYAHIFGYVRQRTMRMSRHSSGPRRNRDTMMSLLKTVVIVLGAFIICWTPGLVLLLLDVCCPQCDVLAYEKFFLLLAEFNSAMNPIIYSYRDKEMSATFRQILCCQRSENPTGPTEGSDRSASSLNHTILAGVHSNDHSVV
Procedure: The inhibitory effects of the compounds of the present disclosure on the LPAR1 receptor were determined using a Chinese hamster ovary (CHO) stable transfected cell line expressing the LPAR1 receptor, through the HTRF cAMP kit (LANCE® Ultra cAMP Kit).
The CHO cell line expressing the LPAR1 receptor was cultured in F-12 medium (Gibco, 117650054) containing 10% fetal bovine serum (FBS, Avantor, 76294-180) and 0.2 mg/mL hygromycin B (Solarbio, H8080-1g) at 37°C with 5% CO2. Cell passage, recovery, and cryopreservation were performed according to conventional methods. The stable transfected cell line was cultured to 80% confluence, digested with trypsin to collect cells, counted, and then seeded at 5 µL/well in a 384-well plate (500 cells/5 µL). The 1× Stimulation Buffer was prepared according to the instructions of the kit (LANCE® Ultra cAMP Kit). 1 µL of the test compound solution (diluted to 10× with 1× Stimulation Buffer) was added to the corresponding experimental wells, followed by centrifugation and incubation at 37°C for 10 minutes. […] 5 µL/well of Eu-cAMP (diluted with Detection buffer) was added to the corresponding experimental wells. 5 µL/well of ULight™-anti-cAMP antibody (diluted with Detection buffer) was added to the corresponding experimental wells, followed by centrifugation and incubation at room temperature for 1 hour. After the incubation was completed, the readings at 665 nm and 620 nm under 330 nm excitation were detected using the HTS high-throughput drug screening multifunctional microplate reader (BMG, PHERAstar FSX). The IC50 values were calculated by fitting nonlinear regression (dose response - variable slope) using GraphPad Prism software.

[1] = target: hLPAR1 (human lysophosphatidic acid receptor 1, Accession No.: NM_001401.4) (Homo sapiens, UniProt Q92633); assay: cell-based; details: FLIPR method, CHO-K1 cells overexpressing hLPAR1
hLPAR1 (human lysophosphatidic acid receptor 1, Accession No.: NM_001401.4), sequence (Q92633 whole entry): as above
Procedure, shortened: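 Antagonist mode in CHO-K1 cells stably expressing hLPAR1, Fluo-4 loaded; compound preincubated 30 min at room temperature before 1 µM oleoyl-LPA (final) challenge.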

[2] = Pharmacokinetic study in rats (oral gavage and tail vein injection, plasma LC-MS/MS); format: in vivo; details: rat, 1 mg/kg; for Cmax: read-out: Cmax
Procedure, shortened: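 Male SD rats (200–250 g) are dosed orally (fasted; 5% DMSO/5% ethanol/60% PEG400/30% saline) or by tail-vein injection (10% ethanol/20% water/70% PEG400). Plasma sampled up to 24 h is analysed by LC-MS/MS. Non-compartmental analysis yields Cmax, C0, Tmax, AUC and T1/2.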

[3] = Table 2, read-out: LPAR1 inhibitory activity IC50
[4] = Table 1, read-out: LPAR1 inhibitory activity IC50

half-life ([2]; male, SD, iv) [h] | half-life ([2]; male, SD, po) [h] | AUC(0-t) ([2]; male, SD rats, Iv) [ng·h/mL] | Cmax ([2]; male, SD rats, Iv) [ng/mL] | AUC(0-t) ([2]; male, SD rats, Po) [ng·h/mL] | Cmax ([2]; male, SD rats, Po) [ng/mL] | IC50 [1, 4] [nM] | SMILES | IC50 (LPAR1 receptor; [3]) [nM] | IC50 ([1]; LPAR1 inhibitory activity IC50, Table 1) [nM] | AUC(0-t) ([2]; SD rats, Iv) [ng·h/mL] | half-life ([2]; SD rats, Iv) [h] | Cmax ([2]; SD rats, Iv) [ng/mL] | AUC(0-t) ([2]; SD rats, Po) [ng·h/mL] | half-life ([2]; SD rats, Po) [h] | Cmax ([2]; SD rats, Po) [ng/mL] | IC50 (LPAR1 receptor; LPAR1 inhibitory activity IC50, Table 2) [nM]
– | – | – | – | – | – | – | Cc1nc(-c2nnn(C)c2NC(=O)O[C@H](C)CC(C)C)ccc1C#C[C@@H]1CC[C@H]1C(=O)O [compound 308] | 93.2 | 10.9 | – | – | – | – | – | – | –
4.36 | 4.08 | 3000 to 5000 | 800 to 5000 | 5000 to 10000 | 800 to 5000 | – | Cc1nc(-c2nnn(C)c2NC(=O)O[C@H](C)c2ccccc2)ccc1C#C[C@@H]1CC[C@H]1C(=O)O [compound 309] | 83.2 | – | – | – | – | – | – | – | –
5.24 | 4.5 | 5000 to 10000 | 5000 to 8000 | 5000 to 10000 | 200 to 800 | 38.1 | CCC[C@@H](C)OC(=O)Nc1c(-c2ccc(C#CC3(CC(=O)O)CC(OC)C3)c(C)n2)nnn1C (stereo partly shown) [compound 278] | 34.4 | – | – | – | – | – | – | – | –
– | – | – | – | – | – | – | CCc1nc(-c2nnn(C)c2NC(=O)O[C@H](C)CC(C)(F)F)ccc1C#CC1(CC(=O)O)CC1 [compound 232] | 75.4 | – | 5000 to 10000 | 14.5 | 800 to 5000 | 3000 to 5000 | 14 | 200 to 800 | –
6.41 | 5.41 | 5000 to 10000 | 8000 to 12000 | 10000 to 20000 | 800 to 5000 | – | CCc1nc(-c2nnn(C)c2NC(=O)O[C@H](C)C(F)(F)CC)ccc1C#CC1(CC(=O)O)CC(OC)C1 (stereo partly shown) [compound 462] | 48.7 | – | – | – | – | – | – | – | –
– | – | – | – | – | – | – | Cc1nc(-c2onc(C)c2NC(=O)O[C@H](C)CC(C)(F)F)ccc1C#CC1(CC(=O)O)CC1 [compound 276] | 96.4 | – | 3000 to 5000 | 3.69 | 800 to 5000 | – | – | – | –
– | – | – | – | – | – | – | CCC(F)(F)[C@@H](C)OC(=O)Nc1c(-c2ccc(C#CC3(CC(=O)O)CC3)c(C)n2)noc1C [compound 444] | 48.4 | – | 1200 to 3000 | 2.91 | 800 to 5000 | 3000 to 5000 | 3.61 | 200 to 800 | –
– | – | – | – | – | – | – | CCC(F)(F)[C@@H](C)OC(=O)Nc1c(-c2ccc(C#CC3(CC(=O)O)CC(OC)C3)c(C)n2)noc1C (stereo partly shown) [compound 468] | – | – | 3000 to 5000 | 2.35 | 800 to 5000 | 5000 to 10000 | 2.77 | 200 to 800 | 31.6
– | – | – | – | – | – | 70 | CCC[C@@H](C)OC(=O)Nc1c(-c2ccc(C#C[C@@H]3C[C@H]3C(=O)O)c(C)n2)nnn1C (mixture of isomers) [224-B, trans-2-((2-methyl-6-(1-methyl-5-(((((R)-pentan-2-yl)oxy)carbonyl)amino)-1H-1,2,3-triazol-4-yl)pyridin-3-yl)ethynyl)cyclopropane-1-carboxylic acid] | 127 | – | – | – | – | – | – | – | –
– | – | – | – | – | – | – | CCc1nc(-c2noc(C)c2NC(=O)O[C@H](C)C(F)(F)CC)ccc1C#CC1(CC(=O)O)CC(OC)C1 (stereo partly shown) [compound 492] | 8.6 | – | 5000 to 10000 | 3.92 | 800 to 5000 | 5000 to 10000 | 3.75 | 800 to 5000 | –
